Measured values: ChEMBL document CHEMBL5303711, “ECBD screening data for assay EOS300108” (2023)
Active and inactive are the calls of the source. No rule for the calls is given here.

Assay: Cytotoxicity activity against human HepG2 cells assessed by CellTiter-Glo luminescent cell viability assay.
Type: toxicity, cell-based
Set-up: assay stage confirmatory assay, source tissue liver
Conditions: HepG2 cells, read-out: IC50 relative

| SMILES | CC50 |
| --- | --- |
| CCc1ccc([N+]2=C3SCCCN3C[C@]2(O)c2ccc(OC)c(OC)c2)cc1 | 10.9 µM (active) |
| COc1ccc(C(=O)Nc2ccncc2)cc1S(=O)(=O)N(C)Cc1ccccc1 | 10.3 µM (active) |
| CC1(C)Cc2c(sc(NC(=O)NCc3cccnc3)c2C(N)=O)CO1 | 12.4 µM (inactive) |
| O=C(CN1C(=O)COc2ccc(S(=O)(=O)N3CCCCCC3)cc21)NCc1ccccc1 | 50 µM (inactive) |
| Cn1nccc1Nc1nccc(-c2ccn([C@H](CO)c3ccc(Cl)c(F)c3)c(=O)c2)n1 [RAVOXERTINIB] | 0.7 µM (active) |
| CCCN1CCC(NC(=O)c2nn(-c3cccc(Cl)c3)nc2C)CC1 | 16.3 µM (inactive) |
| CCOC(=O)C1CCCN(C(=O)C(=O)c2c[nH]c3ccccc23)C1 (stereo not drawn) | 9.8 µM (active) |
| Cc1cc(C(=O)Nc2nc3cccc(Cl)c3n2[C@@H]2CCCCN(C(=O)/C=C/CN(C)C)C2)ccn1 [NAZARTINIB] | 6.4 µM (active) |
| CCCc1ccc(-c2ccc(N(C[C@@H](N)[C@@H](C)CC)C(=O)[C@@H]3C[C@H]3c3ccccn3)cc2)cc1 | 1.6 µM (active) |
| C=CC(=O)Nc1cccc(Oc2nc(Nc3ccc(N4CCN(C)CC4)c(F)c3)nc3[nH]ccc23)c1 | 1.9 µM (active) |
| COc1ccccc1NC(=O)N1CCC(n2cnc3ccc(C)cc3c2=O)CC1 | 3.6 µM (active) |
| Nc1c(C(=O)NCc2ccco2)c2nc3ccccc3nc2n1CCN1CCCCC1 | 8.9 µM (active) |
| CC(C)(C)n1ncc(N2CCN(c3ccc(C#N)cc3F)CC2)c(Cl)c1=O | 22.7 µM (active) |
| C=CCc1cccc(/C=N/NC(=O)CN2CCN(Cc3ccccc3)CC2)c1O [PAC-1] | 6.3 µM (active) |
| Cc1nn(-c2cccc(Cl)c2)nc1C(=O)N(C)C1CCNCC1 | 11.4 µM (active) |
| COCCNCc1ccc(-c2cc3nccc(Oc4ccc(NC(=O)C5(C(=O)Nc6ccc(F)cc6)CC5)cc4F)c3s2)nc1 [SITRAVATINIB] | 4.6 µM (active) |
| Cc1ccc(C(=O)N(CCCN)[C@@H](c2nc3cc(Cl)ccc3c(=O)n2Cc2ccccc2)C(C)C)cc1 [ISPINESIB] | 5.5 µM (active) |
| C[C@H]1CCC/C=C\[C@@H]2C[C@H](O)C[C@H]2[C@H](O)/C=C\C(=O)O1 | < 0.1 µM (active) |
| CCN(Cc1ccc(OC)cc1)Cc1nc2c(F)cccc2[nH]1 | 10.2 µM (active) |
| COc1ccc2c(c1)/C(=C/c1cnc[nH]1)C(=O)N2 [SU-9516] | 8.9 µM (active) |
| COc1ccc(N(C(=O)Oc2c(C)cccc2C)c2ccnc(Nc3ccc(N4CCN(C)CC4)cc3)n2)c(OC)c1 | 3.3 µM (active) |
| Cc1cc(Nc2nc(N[C@@H](C)c3ncc(F)cn3)ncc2Cl)n[nH]1 [AZD-1480] | 7.9 µM (active) |

| SMILES | CC50 |
| --- | --- |
| CCCc1cc(N2CCN(CCO)CC2)n2ncc(-c3ccccc3)c2n1 | 11.5 µM (active) |
| Cc1cc(-c2csc(NC(=O)c3coc(S(=O)(=O)N(C)C)c3)n2)c(C)o1 | 16.5 µM (inactive) |
| COc1cccc(S(=O)(=O)N2CCC3(CC2)CC(CCOc2ccncc2)CCO3)c1 (stereo not drawn) | 13.2 µM (active) |
| Oc1c(Cl)cc(Cl)c(Cl)c1Cc1c(O)c(Cl)cc(Cl)c1Cl [HEXACHLOROPHENE] | 5.2 µM (active) |
| O=C1Nc2cc(Br)ccc2/C1=C1/Nc2ccccc2/C1=N\O [6BIO] | 26.5 µM (inactive) |
| CCOC(=O)[C@H](Cc1ccc([N+](=O)[O-])cc1)NC(=O)c1ccccc1 | 15.4 µM (active) |
| CC(C)CCOc1ccc(CN(CC(C)(C)N(C)C)S(C)(=O)=O)cc1 | 12.2 µM (active) |
| CCCCNc1ncc(C(=O)NCc2ccc(-n3ccnc3)cc2)c(N[C@H]2CC[C@H](O)CC2)n1 | 2.8 µM (active) |
| CC(C)(C)NS(=O)(=O)c1ccc(C(=O)Nc2ccc(Oc3cccnc3)nc2)o1 | 11.8 µM (inactive) |
| Cc1ccc([N+](=O)[O-])cc1S(=O)(=O)N(C)/N=C/c1cnc2ccc(Br)cn12 | < 0.1 µM (active) |
| COc1cccc(NC(=O)CN(C)C(=O)Cn2ncc(Cl)c(Cl)c2=O)c1 | 8.5 µM (active) |
| CNS(=O)(=O)c1cc(-c2cc(C(=O)Nc3cccc(OC)c3)n[nH]2)ccc1OC | 9.2 µM (active) |
| COc1ccc(CN(CC(=O)c2c(N)n(C)c(=O)n(C)c2=O)[C@@H](C)Cc2cccs2)cc1 | 7.2 µM (active) |
| Cc1cccc2c3c(ccc12)C1=C(C(=O)C3=O)[C@@H](C)CO1 [DIHYDROTANSHINONE I] | 1.8 µM (active) |
| CNc1snc(C)c1C(=O)N[C@@H](C)c1ccc2c(c1)OCCCO2 | 4.2 µM (active) |
| CCN(CC)CCN(Cc1ccc(-c2ccc(C(F)(F)F)cc2)cc1)C(=O)Cn1c(SCc2ccc(F)cc2)nc(=O)c2c1CCC2 [DARAPLADIB] | 1.5 µM (active) |
| O=C(NC1CCNCC1)c1n[nH]cc1NC(=O)c1c(Cl)cccc1Cl [AT-7519] | 0.2 µM (active) |
| CCS(=O)(=O)Nc1ccc(Oc2ccc(F)cc2F)c(-c2cn(C)c(=O)c3[nH]ccc23)c1 [MIVEBRESIB] | 0.3 µM (active) |
| Cc1cccc(-c2[nH]c(C(C)(C)C)nc2-c2ccc3c(c2)OCO3)n1 | 2.8 µM (active) |
| CCC(C)(C)C(=O)O[C@H]1C[C@@H](C)C=C2C=C[C@H](C)[C@H](CC[C@@H]3C[C@@H](O)CC(=O)O3)[C@H]21 [SIMVASTATIN] | 17.1 µM (inactive) |
| CN1CCC(c2c[nH]c3ccc(NC(=O)c4ccc(F)cc4)cc23)CC1 | 14.2 µM (inactive) |
| COc1cccc(Cn2c(=O)c3ccnn3c3ccc(C(=O)NCCN(C)C)cc32)c1 | 12.3 µM (active) |

| SMILES | CC50 |
| --- | --- |
| N#Cc1ccc(NC(=O)c2cccc3ncccc23)cc1 | 10.8 µM (inactive) |
| Cc1nc(NC(=O)c2cc(Br)cn2C)sc1C | 1 µM (active) |
| Cc1ccc(-c2cc3c(=O)n(CC#N)ccn3n2)cc1 | 0.3 µM (active) |
| c1ccc2c(c1)sc1ncnc(NC[C@H]3CN(C4CC4)CCO3)c12 | 11.8 µM (active) |
| COc1ccc(-c2nc(Cn3ncc(Cl)c(Cl)c3=O)co2)cc1 | 11 µM (active) |
| Fc1ccc(C(OCCN2CCN(CCCc3ccccc3)CC2)c2ccc(F)cc2)cc1 | 5.7 µM (active) |
| COc1ccc(-c2cn3nc(N4CCCC(C(=O)NCCN5CCCC5)C4)sc3n2)cc1 (stereo not drawn) | 5.1 µM (active) |
| NC(=O)c1coc(-c2csc(-c3ccccc3O)n2)c1 | 2.5 µM (active) |
| NC(=O)Nc1sc(-c2ccccc2)cc1C(N)=O | 7.9 µM (active) |
| Cc1cnccc1NCCNC1CCN(c2ccc(F)c(F)c2)CC1 | 1.7 µM (active) |
| O=S(=O)(c1ccc(N2CCN(c3ncnc4c3oc3ccccc34)CC2)nc1)N1CCOCC1 | 3.3 µM (active) |
| COc1cc2ncnc(Nc3cccc(Br)c3)c2cc1OC | 6.7 µM (active) |
| COc1ccc(-c2noc(=O)n2Cc2ncc(C)c(OC)c2C)cc1OC | 6.2 µM (active) |
| COc1ccc(OCCN2CCN(C(=O)c3ccc(OCc4cn5ccccc5n4)cc3)CC2)cc1 | 4.3 µM (active) |
| CN(c1ccc(-c2csc(NC(=O)CCc3ccco3)n2)cc1)S(C)(=O)=O | 6 µM (active) |
| CC(C)(Cc1ccc2ccccc2c1)NC[C@@H](O)COc1cccc(Cl)c1C#N | 1.3 µM (active) |
| Cc1noc(C2CN(C3CCCC3)CCCN2C(=O)c2ccccc2)n1 (stereo not drawn) | 6.6 µM (active) |
| CCc1cc2c(cc1CC)CC(NC[C@H](O)c1ccc(O)c3[nH]c(=O)ccc13)C2 [INDACATEROL] | 9.1 µM (active) |
| Cc1cccc(N2CCN(CC(=O)c3c(N)n(CC(C)C)c(=O)n(C)c3=O)CC2)c1C | 10.7 µM (active) |
| CN(C)CC1CCN(Cc2[nH]c3ccccc3c2Cl)C1 (stereo not drawn) | 5.8 µM (active) |
| COc1cc2nccc(Oc3ccc(NC(=O)Nc4cc(C)on4)c(Cl)c3)c2cc1OC [TIVOZANIB] | 6.7 µM (active) |
| CCc1ccc(NC(=O)Nc2ccc3c(c2)N(S(=O)(=O)CC)CC3)cc1 | 2.4 µM (active) |

| SMILES | CC50 |
| --- | --- |
| Cc1cc(C(=O)Nc2ccccn2)c2ccccc2n1 | 2.1 µM (active) |
| C[C@]12CC/C(=N\OCCN)C[C@@H]1C(=O)C[C@@H]1[C@@H]2CC[C@]2(C)C(=O)CC[C@@H]12 | 10.5 µM (active) |
| Cc1cn(CC(=O)c2ccc(NC(=O)CC(C)C)cc2)cc(Br)c1=O | 22.2 µM (inactive) |
| COc1cc(-c2nc(-c3cccs3)no2)cc(OC)c1O | 0.4 µM (active) |
| CC(=O)N1c2ccc(S(=O)(=O)N3CCC(C(=O)NCc4cccs4)CC3)cc2CC1C (stereo not drawn) | 33.9 µM (inactive) |
| Cc1sc2c(c1C)C(c1ccc(Cl)cc1)=N[C@@H](CC(=O)OC(C)(C)C)c1nnc(C)n1-2 | 1.2 µM (active) |
| COc1cccc2c1C(=O)c1c(O)c3c(c(O)c1C2=O)CC(O)(C(=O)CO)CC3OC1CC(N)C(O)C(C)O1 (stereo not drawn) | 0.4 µM (active) |
| O=C(Cn1ncc(Cl)c(Cl)c1=O)NCCC1=CCCCC1 | 4.4 µM (active) |
| COc1ccc2nc(NC(=O)CN3C(=O)c4ccccc4S3(=O)=O)sc2c1 | 14.8 µM (inactive) |
| CN1CCN(C)C(CNc2ncc(F)c(N(C)C)n2)C1 (stereo not drawn) | 50 µM (inactive) |
| COc1ncccc1NC(=O)c1n[nH]c2ccccc12 | 0.1 µM (active) |
| CCC(=O)Nc1cccc(Oc2nc(Nc3ccc(N4CCN(C)CC4)cc3OC)ncc2Cl)c1 | 2.8 µM (active) |
| Cc1ccccc1-c1nc(C#N)c(NCC(C)N2CCN(C)CC2)o1 (stereo not drawn) | 10.8 µM (active) |
| CCOc1cc2ncc(C#N)c(Nc3ccc(F)c(Cl)c3)c2cc1NC(=O)/C=C/CN(C)C [PELITINIB] | 1.8 µM (active) |
| Cc1cc(F)c(C(=O)Nc2cccc(-c3nncn3C(C)C)n2)cc1-n1cnc(C2CC2)c1 [SELONSERTIB] | 12.3 µM (active) |
| Cc1nc(Nc2cnn(C3CCNCC3)c2)nc2c1N(C)C(=O)c1cc3ccccc3cc1N2C | 4.5 µM (active) |
| N[C@@H](CNC(=O)COc1ccc(Cl)c2ccccc12)C1CC1 | 24.9 µM (inactive) |
| O=C(c1cccc(S(=O)(=O)N2CCOCC2)c1)N1CCN(c2nc3ccccc3s2)CC1 | 5 µM (active) |
| COc1cc2c(cc1-c1c(C)noc1C)ncc1[nH]c(=O)n([C@H](C)c3ccccn3)c12 | 1.4 µM (active) |
| O=C1CCc2ccc(OCCCCN3CCN(c4cccc(Cl)c4Cl)CC3)cc2N1 [ARIPIPRAZOLE] | 25.6 µM (inactive) |
| COc1ccccc1C(=O)Nc1nc2ccccc2[nH]1 | 2.8 µM (active) |
| CNc1nc(-c2ccc3c(N)n[nH]c3c2)cc(N2C[C@@H](C(=O)NC3CCCCC3)CC[C@H]2C)n1 | 50 µM (inactive) |
